Key:
[1] = molecular target: T1, OATP1B-type transporters (Oatp1b2) (Mus musculus, UniProt Q9JJL3); experiment: Murine pharmacokinetic study: influence of OATP1B inhibitors on plasma CDCA-24G in wild-type mice; format: in vivo; conditions: rifampin 20 mg/kg i.v. or paclitaxel 10 mg/kg i.v.
T1 construct: was performed in wild-type mice and Oatp1b2(−/−) mice; from tissue; host or cells: living wild-type mice (DBA/1LacJ or FVB background); hepatic transporter in vivo
T1 sequence (Q9JJL3 1-689): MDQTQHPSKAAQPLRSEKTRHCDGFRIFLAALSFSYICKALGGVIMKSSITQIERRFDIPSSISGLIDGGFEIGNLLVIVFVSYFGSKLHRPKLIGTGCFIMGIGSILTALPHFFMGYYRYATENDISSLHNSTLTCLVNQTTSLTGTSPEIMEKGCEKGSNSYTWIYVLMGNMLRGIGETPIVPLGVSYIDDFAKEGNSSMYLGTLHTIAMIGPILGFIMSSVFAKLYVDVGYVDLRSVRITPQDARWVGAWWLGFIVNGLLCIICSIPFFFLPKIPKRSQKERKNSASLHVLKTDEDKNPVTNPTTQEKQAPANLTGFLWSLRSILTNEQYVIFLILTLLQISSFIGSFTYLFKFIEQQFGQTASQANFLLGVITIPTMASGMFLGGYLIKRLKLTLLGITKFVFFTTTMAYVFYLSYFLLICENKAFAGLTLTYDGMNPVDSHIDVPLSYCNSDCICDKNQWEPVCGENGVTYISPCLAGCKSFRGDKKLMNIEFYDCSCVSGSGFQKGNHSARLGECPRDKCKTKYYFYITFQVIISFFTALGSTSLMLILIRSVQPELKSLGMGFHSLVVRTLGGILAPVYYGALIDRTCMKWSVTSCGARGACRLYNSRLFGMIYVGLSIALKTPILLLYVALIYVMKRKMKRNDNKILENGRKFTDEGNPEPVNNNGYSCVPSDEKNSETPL
Experimental: In these experiments, serial whole blood samples were collected in heparinized tubes immediately prior to drug administration (pre-dose) and at 0.25, 0.5, 1, 2, and 4 h after administration from the submandibular vein for the initial three time-points, from the retro-orbital sinus vein for the subsequent two time-points, and by cardiac puncture at the terminal time-point. Whole blood samples were centrifuged at 11,000 rpm for 5 min; then, the plasma supernatants were collected and stored at −80 °C until analysis by a validated method based on LC-MS/MS.
An Accucore aQ column (50 × 2.1 mm, dp = 2.6 μm; Thermo Fisher Scientific) was protected by a C18 AQUASIL guard cartridge (2.1 mm × 10 mm, dp = 3 μm; Thermo Fisher Scientific). The injection volume of sample was 5.0 μL. The temperature of the autosampler rack was 4 °C, and the temperature of the column was maintained at 20 °C. The mobile phase was composed of solvent A (2 mmol ammonium acetate in water) and solvent B (100% methanol), and the total run time was 4.6 min. […]
(§1) Pharmacokinetic parameters were derived from non-compartmental analysis using Phoenix WinNonlin version 8.0 (Certara, Princeton, NJ, USA). The peak plasma concentration (Cmax) was determined by visual inspection of the data from the concentration–time curves. […]

[2] = system: OATP1B; conditions: patients, paclitaxel (Taxol) 1 h i.v. infusion, 50 or 100 mg/m^2; dose-dependent
Experimental: An Accucore aQ column (50 × 2.1 mm, dp = 2.6 μm; Thermo Fisher Scientific) was protected by a C18 AQUASIL guard cartridge (2.1 mm × 10 mm, dp = 3 μm; Thermo Fisher Scientific). The injection volume of sample was 5.0 μL. The temperature of the autosampler rack was 4 °C, and the temperature of the column was maintained at 20 °C. The mobile phase was composed of solvent A (2 mmol ammonium acetate in water) and solvent B (100% methanol), and the total run time was 4.6 min. The gradient conditions were as follows: 0–0.5 min, 45% B; 0.5–2.0 min, 45 to 90%, 2.0–4.0 min, 90% B; 4.0–4.6 min, 45% B, delivered at a flow rate of 0.4 mL/min. The MS assay setting with the positive voltage applied to the ESI capillary was set at 3791 V, and the capillary temperatures was 335 °C with a vaporizer temperature of 350 °C. Argon was used as the collision gas at a pressure of 1.5 mTorr. […] The lower limit of quantitation (LLOQ) for both analytes was determined to be 0.5 ng/mL. […]
as §1

[3] = system: OATP1B3; parameters: method as in ref PMIDs of Table S2 (18321482, 35456528, 28612269, 10997930, 11129729, 22808947, 12844327); conditions: ref PMIDs of Table S2 (18321482, 35456528, 28612269, 10997930, 11129729, 22808947, 12844327); cited from earlier work
[4] = parameters: method as in ref PMIDs of Table S2 (18321482, 35456528, 28612269, 10997930, 27796539, 23299792, 11129729, 22808947, 12844327); conditions: ref PMIDs of Table S2 (18321482, 35456528, 28612269, 10997930, 27796539, 23299792, 11129729, 22808947, 12844327); cited from earlier work
[5] = molecular target: T2, OATP1B1 (Homo sapiens, UniProt Q9Y6L6); parameters: method as in ref PMIDs of Table S2 (18321482, 35456528, 28612269, 10997930, 11129729, 22808947, 12844327); conditions: ref PMIDs of Table S2 (18321482, 35456528, 28612269, 10997930, 11129729, 22808947, 12844327); cited from earlier work
T2 construct: expressed in transfected cells; host or cells: HEK293 (ATCC)
T2 sequence (Q9Y6L6 1-691): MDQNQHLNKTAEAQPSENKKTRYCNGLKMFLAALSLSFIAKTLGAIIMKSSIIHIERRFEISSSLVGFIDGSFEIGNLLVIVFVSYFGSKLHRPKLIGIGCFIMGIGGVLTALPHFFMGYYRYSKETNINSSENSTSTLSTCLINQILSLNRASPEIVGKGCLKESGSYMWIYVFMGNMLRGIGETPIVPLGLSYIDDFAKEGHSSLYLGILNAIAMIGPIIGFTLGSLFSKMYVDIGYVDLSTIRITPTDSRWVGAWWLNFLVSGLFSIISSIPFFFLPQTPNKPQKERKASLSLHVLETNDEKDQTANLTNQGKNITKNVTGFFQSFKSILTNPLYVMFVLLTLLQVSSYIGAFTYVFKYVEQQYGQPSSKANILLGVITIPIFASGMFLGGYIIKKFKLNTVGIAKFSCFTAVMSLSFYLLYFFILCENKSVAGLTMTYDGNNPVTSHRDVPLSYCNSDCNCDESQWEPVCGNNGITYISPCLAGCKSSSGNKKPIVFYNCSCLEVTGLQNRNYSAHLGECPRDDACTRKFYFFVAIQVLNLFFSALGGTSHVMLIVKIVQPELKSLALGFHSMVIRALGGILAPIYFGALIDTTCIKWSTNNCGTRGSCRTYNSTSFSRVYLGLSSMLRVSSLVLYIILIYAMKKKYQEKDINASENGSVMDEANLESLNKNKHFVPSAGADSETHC

| SMILES | Effect on circulating levels of CDCA-24G [1] | Effect on plasma levels of CDCA-24G [2] | IC50 [3] | Cmax [4] | IC50 [5] |
| --- | --- | --- | --- | --- | --- |
| CC(=O)O[C@H]1C(=O)[C@@]2(C)[C@H]([C@H](OC(=O)c3ccccc3)[C@]3(O)C[C@H](OC(=O)[C@H](O)[C@@H](NC(=O)c4ccccc4)c4ccccc4)C(C)=C1C3(C)C)[C@]1(OC(C)=O)CO[C@@H]1C[C@@H]2O [Paclitaxel, paclitaxel] | transient, statistically significant increase | elevated | 500 nM | 9.6 µM |  |
| CO[C@H]1/C=C/O[C@@]2(C)Oc3c(C)c(O)c4c(O)c(c(/C=N/N5CCN(C)CC5)c(O)c4c3C2=O)NC(=O)/C(C)=C\C=C\[C@H](C)[C@H](O)[C@@H](C)[C@@H](O)[C@@H](C)[C@H](OC(C)=O)[C@@H]1C [Rifampin, rifampin] | transient, statistically significant increase |  | 2600 nM | 29 µM | 1500 nM |
